Series [1] concerns the target MAO-B. Also noted: method as in PMID 28577983. As to conditions: methoxylated chalcones previously reported ref 30; cited from earlier work.
Series [2] concerns the target T1, MAO-B (Homo sapiens, UniProt P27338).
T1 sequence (P27338 1-520): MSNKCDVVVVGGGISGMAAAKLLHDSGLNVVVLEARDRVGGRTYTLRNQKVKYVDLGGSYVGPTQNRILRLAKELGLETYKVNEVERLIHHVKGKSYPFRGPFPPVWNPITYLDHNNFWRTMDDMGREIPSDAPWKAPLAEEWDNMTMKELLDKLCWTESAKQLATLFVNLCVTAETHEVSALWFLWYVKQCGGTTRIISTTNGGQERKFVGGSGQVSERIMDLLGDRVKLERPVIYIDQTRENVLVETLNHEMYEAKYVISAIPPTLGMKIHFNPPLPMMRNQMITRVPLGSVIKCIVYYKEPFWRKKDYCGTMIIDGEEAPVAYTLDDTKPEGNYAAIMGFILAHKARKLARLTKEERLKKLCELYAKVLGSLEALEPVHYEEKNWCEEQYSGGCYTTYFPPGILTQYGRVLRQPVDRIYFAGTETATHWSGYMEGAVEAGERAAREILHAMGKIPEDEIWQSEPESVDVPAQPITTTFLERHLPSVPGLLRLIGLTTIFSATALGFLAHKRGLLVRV
The series can be described thus: Reversibility of MAO-B inhibition by dialysis. Format: biochemical. The note with it: for MAO-B activity of dialyzed sample (AD): after dialysis; for MAO-B activity of dialyzed sample (AD) / MAO-B activity of undialyzed sample (AU): test compounds […], lazabemide 0.20 µM, pargyline 0.30 µM; for MAO-B activity of undialyzed sample (AU): preincubated 30 min. The procedure:
The reversibilities of MAO-B inhibitions by TM1 and TM8 were assessed by dialysis. […] Reversibility patterns were determined by comparing the activities of dialyzed (AD) and undialyzed (AU) samples.

Series [3] is described as follows: BBB permeation by parallel artificial membrane permeability assay (PAMPA). It is filed as in vitro ADME. The note with it: for Prediction (BBB permeation): PAMPA-BBB class from Pe; for Papp: PAMPA-BBB, read-out: Experimental Pe.
Description: The CNS bioavailability of the lead candidates was further ascertained by PAMPA method [31].
Series [4] addresses T1, MAO-B. The series can be described thus: MAO-B enzyme inhibition (benzylamine substrate, 250 nm). The note with it: for SI (hMAO-B selectivity index): IC50(hMAO-A) divided by IC50(hMAO-B); for Times more potent than pargyline (MAO-B) / Times more potent than the reference drug lazabemide (MAO-B): ratio of MAO-B IC50 values; for remaining activity at 10 µM: read-out: Residual Activity at 10 µM (%) MAO-B.
Protocol: (§5) MAO activity assays were performed using recombinant human MAO-A or MAO-B.
(§6) IC50 values were determined by measuring residual enzyme activities.

In series [5] the target is T2, recombinant human MAO-A (Homo sapiens, UniProt P21397).
T2 sequence (P21397 1-527): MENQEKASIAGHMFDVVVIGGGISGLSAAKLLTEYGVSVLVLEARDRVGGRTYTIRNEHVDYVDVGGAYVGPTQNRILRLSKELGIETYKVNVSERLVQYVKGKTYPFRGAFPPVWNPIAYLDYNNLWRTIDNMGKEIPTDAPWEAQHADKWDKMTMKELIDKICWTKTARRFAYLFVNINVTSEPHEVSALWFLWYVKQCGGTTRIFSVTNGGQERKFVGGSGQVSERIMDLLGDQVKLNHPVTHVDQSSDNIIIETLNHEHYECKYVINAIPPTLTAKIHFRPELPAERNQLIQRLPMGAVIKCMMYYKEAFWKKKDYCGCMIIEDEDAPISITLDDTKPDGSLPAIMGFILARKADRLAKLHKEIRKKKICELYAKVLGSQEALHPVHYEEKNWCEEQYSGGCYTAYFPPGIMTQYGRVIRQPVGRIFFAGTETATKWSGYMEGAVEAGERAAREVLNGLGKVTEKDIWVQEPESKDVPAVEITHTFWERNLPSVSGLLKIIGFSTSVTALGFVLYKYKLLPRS
The series can be described thus: MAO-A enzyme inhibition (kynuramine substrate, 316 nm). The note with it: for remaining activity at 10 µM: read-out: Residual Activity at 10 µM (%) MAO-A.
Protocol: as §5, §6

Series [6] concerns Vero cells. The series can be described thus: Cytotoxicity by MTT assay. As to conditions: Chlorocebus sabaeus, Vero, 48 h, MTT assay, read-out: IC50 for Vero cell viability. It is filed as cell-based, African Green Monkey. The procedure: (§1) African Green Monkey kidney cells (VERO cells) were used to evaluate the cytotoxic effects of TM1 and TM8. Cells were incubated with different doses (1 µg/mL to 500 µg/mL) of the two compounds for 48 h, and relative cell viabilities were determined by MTT assay.
(§2) The cytotoxicities and ROS quenching abilities of the two lead compounds (TM1 and TM8) were evaluated as previously described.
(§3) Figure 4 Effect of TM1 on Vero cell viability. (a) cell viability treated with TM1; (b) dose-response curve; (c) phase contrast microscope images of Vero cells treated with different concentrations of TM1. Cells were treated with TM1 for 48 h and cell viabilities were assessed by MTT assay as described in Section 4.
(§4) Figure 5 Effect of TM8 on Vero cell viability. (a) cell viability treated with TM8; (b) dose-response curve; (c) phase contrast microscope images of Vero cells treated with different concentrations of TM8. Cells were treated with TM8 for 48 h and cell viabilities were assessed by MTT assay as described in Section 4.
For orientation: Tetrazolium assays rely on reduction of a dye to a coloured formazan, in cell work by metabolically active cells.

A short description of series [7]: Cytotoxicity by MTT assay. Format: cell-based, African Green Monkey. As to conditions: African green monkey, Vero cells (kidney); Vero cells treated at effective concentrations; read-out: Cells remaining viable. The procedure: as §1, §2, §3, §4
The test system of series [8] is Vero cells. Briefly: ROS assay (H2O2-induced ROS levels). As to conditions: compound at its IC50 value, exogenous H2O2. Format: cell-based, African Green Monkey. As for the experimental part:
ROS increase vulnerability to neuronal damage by causing oxidative damage in the brain during neurodegenerative diseases.
as §2
Figure 6 Effects of TM1 (a) and TM8 (b) on H2O2-induced ROS levels. Vero cells (1 × 10^6 cells/mL) were pre-incubated with 100 μg/mL of 30% H2O2 and ROS production was evaluated immediately as described in Section 4.

Values joined by “and” are separate entries in the source; they are usually repeats but may differ in a detail not shown here. Identical values can stand only once. “Also recorded” adds a separate entry of the source. Like-named read-outs stand apart in the source and are kept apart here.

As a reminder, the Ki is a dissociation constant, usually derived from enzyme kinetics or from competition with a known ligand. With `COc1ccc(C(=O)/C=C/c2ccccc2)cc1` [Compound C1], in series [1], the Ki was 0.7 ± 0.05 µM and the “SI for MAO-B” value was 5.07.
Turning to `COc1ccc(C(=O)/C=C/c2ccc(Cl)cc2)cc1` [Compound C8], the “SI for MAO-B” value in series [1] is recorded as 3.89.
With `NCCNC(=O)c1ccc(Cl)cn1` [Lazabemide, reference compound], in series [2], the “MAO-B activity of dialyzed sample (AD)” value is listed as 74.9% and the “MAO-B activity of undialyzed sample (AU)” value is recorded as 16.6%.
`CCn1cc(C(=O)O)c(=O)c2cc(F)c(N3CCNC(C)C3)c(F)c21` (stereo not shown) [Lomefloxacin, reference compound]: in series [3], the “Prediction (BBB permeation)” value is “CNS− (CNS− (low BBB permeation predicted): Pe (10^−6 cm·s^−1) < 2.00)” and the Papp is 1.22 ± 0.02 ×10⁻⁶ cm/s.
`CC(=O)[C@H]1CC[C@H]2[C@@H]3CCC4=CC(=O)CC[C@]4(C)[C@H]3CC[C@]12C` [Progesterone, reference compound]: in series [3], the “Prediction (BBB permeation)” value was “CNS+ (CNS+ (high BBB permeation predicted): Pe (10^−6 cm·s^−1) > 4.00)”.
Broadly, the IC50 is the concentration that inhibits the measured activity by half. In the case of `CSc1ccc(C(=O)/C=C/c2ccc(O)cc2)cc1` [TM2], in series [4], the IC50 was determined as 0.021 ± 0.003 µM, the “SI (hMAO-B selectivity index)” value came out at 354.8, the “Times more potent than pargyline (MAO-B)” value amounted to 1.3 times and the “Times more potent than the reference drug lazabemide (MAO-B)” value is 3.0 times. Moreover, the remaining activity at 10 µM in series [4] was -5.7 ± 5.3%. Further, in series [3], the “Prediction (BBB permeation)” value was “CNS+ (CNS+ (high BBB permeation predicted): Pe (10^−6 cm·s^−1) > 4.00)” and the Papp turned out to be 13.3 ± 0.8 ×10⁻⁶ cm/s. Besides, in series [5], the IC50 worked out at 7.45 ± 0.25 µM and the remaining activity at 10 µM is 48.3 ± 2.4%.
As to `COc1ccc(/C=C/C(=O)c2ccc(SC)cc2)cc1` [TM3], in series [4], the IC50 turned out to be 0.088 ± 0.011 µM, the “SI (hMAO-B selectivity index)” value is 100.2 and the remaining activity at 10 µM came out at 6.9%. In series [5], the IC50 was determined as 8.82 ± 0.09 µM and the remaining activity at 10 µM was 44.6 ± 1.9%.
On to `CSc1ccc(C(=O)/C=C/c2ccc(C)cc2)cc1` [TM4], for which, in series [4], the IC50 is 0.058 ± 0.001 µM, the “SI (hMAO-B selectivity index)” value is recorded as 206.9, the “Times more potent than the reference drug lazabemide (MAO-B)” value came out at 1.1 times and the remaining activity at 10 µM is 14.7 ± 2.8%. In series [5], the IC50 is 12 ± 0.99 µM and the remaining activity at 10 µM was determined as 71.6 ± 3.8%.
Consider `CSc1ccc(C(=O)/C=C/c2ccc(N(C)C)cc2)cc1` [TM5], for which, in series [4], half-maximal inhibition (IC50) was put at 0.12 ± 0.011 µM, the “SI (hMAO-B selectivity index)” value is 49.3 and the remaining activity at 10 µM came out at 1.6 ± 1.1%. In addition, in series [5], the IC50 came out at 5.91 ± 0.87 µM and the remaining activity at 10 µM was 47.9 ± 3.7%.
On to `CCc1ccc(/C=C/C(=O)c2ccc(SC)cc2)cc1` [TM6], for which, in series [4], the IC50 was 0.13 ± 0.005 µM, the “SI (hMAO-B selectivity index)” value turned out to be 51.6 and the remaining activity at 10 µM is -9.5%. In series [5], the IC50 was found to be 6.71 ± 0.75 µM and the remaining activity at 10 µM was determined as 49.4 ± 8.7%.
For the molecule `CSc1ccc(C(=O)/C=C/c2ccc([N+](=O)[O-])cc2)cc1` [TM7], in series [4], the IC50 is 0.023 ± 0.001 µM; the “SI (hMAO-B selectivity index)” value is 1304 and 1304.3; the “Times more potent than pargyline (MAO-B)” value is recorded as “almost as potent as pargyline”; the “Times more potent than the reference drug lazabemide (MAO-B)” value is 2.7 times. In addition, in series [4], the remaining activity at 10 µM amounted to 6 ± 1.9%. Further, in series [3], the “Prediction (BBB permeation)” value is on record as “CNS+ (CNS+ (high BBB permeation predicted): Pe (10^−6 cm·s^−1) > 4.00)” and the Papp was 15.5 ± 0.71 ×10⁻⁶ cm/s. In series [5], the IC50 came to 30 ± 3.02 µM and the remaining activity at 10 µM is 66.1 ± 2.6%.
For the molecule `CSc1ccc(C(=O)/C=C/c2ccc(Cl)cc2)cc1` [TM8], the IC50 in series [6] (converted from µg/mL) came to 402 µM. Moreover, the IC50 in series [6] was determined as 116 µg/mL. The viability at 48 h in series [7] is above 90%. Further, in series [4], the IC50 was 0.01 ± 0.005 µM, the “Times more potent than pargyline (MAO-B)” value is recorded as 2.8 times, the “Times more potent than the reference drug lazabemide (MAO-B)” value was 6.3 times and the remaining activity at 10 µM came to 4.1 ± 0.5%. In addition, the “Blood-brain barrier permeability in words” value in series [3] (PAMPA) is “high blood-brain barrier permeabilities”. In addition, in series [3], the “Prediction (BBB permeation)” value is given as “CNS+ (CNS+ (high BBB permeation predicted): Pe (10^−6 cm·s^−1) > 4.00)” and the Papp stood at 16.3 ± 0.26 ×10⁻⁶ cm/s. In series [5], the IC50 came to 48.6 ± 3.44 µM and the remaining activity at 10 µM worked out at 77.4 ± 8.2%. The “Effect on H2O2-induced intracellular ROS levels” value in series [8] is on record as “significantly reduced reactive oxygen species (ROS) levels; also recorded: appreciably lower ROS levels; also recorded: mitigated H2O2-induced increases in ROS levels”. In addition, in series [2], the “MAO-B activity of dialyzed sample (AD)” value stood at 69.3% and the “MAO-B activity of undialyzed sample (AU)” value was determined as 33.1%. Besides, in series [2] (dialysis-based method), the “Reversibility of MAO-B inhibition” value is given as “reversible MAO-B inhibitors”.
For `CSc1ccc(C(=O)/C=C/c2ccc(Br)cc2)cc1` [TM9], in series [4], the IC50 was 0.088 ± 0.006 µM, the “SI (hMAO-B selectivity index)” value is recorded as 381.8 and the remaining activity at 10 µM worked out at 7.5 ± 2.1%. In series [5], the IC50 was found to be 33.6 ± 2.56 µM and the remaining activity at 10 µM amounted to 74.7%.
For the molecule `CSc1ccc(C(=O)/C=C/c2ccc(F)cc2)cc1` [TM10], in series [4], half-maximal inhibition (IC50) required 0.026 ± 0.004 µM, the “SI (hMAO-B selectivity index)” value came to 526.9, the “Times more potent than pargyline (MAO-B)” value is “almost as potent as pargyline” and the “Times more potent than the reference drug lazabemide (MAO-B)” value is on record as 2.4 times. Besides, the remaining activity at 10 µM in series [4] was -0.4 ± 2.7%. Further, in series [3], the “Prediction (BBB permeation)” value was “CNS+ (CNS+ (high BBB permeation predicted): Pe (10^−6 cm·s^−1) > 4.00)” and the Papp was 15.2 ± 0.44 ×10⁻⁶ cm/s. Further, in series [5], the IC50 is 13.7 ± 1.22 µM and the remaining activity at 10 µM came to 57.9 ± 6%.
Take `CSc1ccc(C(=O)/C=C/c2ccc(C(F)(F)F)cc2)cc1` [TM11]: in series [4], the IC50 stood at 0.081 ± 0.032 µM, the “SI (hMAO-B selectivity index)” value is given as 311.1 and the remaining activity at 10 µM stood at 7.4 ± 1.2%. In addition, in series [5], the IC50 was determined as 25.2 ± 0.14 µM and the remaining activity at 10 µM stood at 79.5 ± 0.7%.

These data come from publication PMC8623647 (Pharmaceuticals, 2021).
